Columns and labels:
[1] = tested on: Human Oral Mucosa Explant Tissues; assay: Effect of final gel pH on anthocyanin uptake into human oral mucosa explant tissues; type: in vitro ADME; conditions: 10% w/w FBR gel; for Anthocyanin uptake, Gel pH 3.5, Avg. ± SEM / Anthocyanin uptake, Gel pH 6.5, Avg. ± SEM: average of eleven explant samples; for % change 3.5 to 6.5, Avg. ± SEM: average of explant samples
Method: Anthocyanin content in sera, saliva, and tissue explants was evaluated by an HPLC-MS assay. The respective samples (sera, saliva or tissue homogenates) were dissolved in 90% solvent A (water plus 1% formic acid) and 10% solvent B (acetonitrile plus 1% formic acid) and then separated on a Symmetry C18 reversed-phase column and analyzed using a Waters 2695 gradient HPLC separation module equipped with a 996 photodiode-array (PDA) UV/visible absorbance detector (Milford, Mass.). The solvent system consisted of a step gradient from 90% A to 50% B over 15 minutes, and the absorption spectra were recorded from 200-800 nm with the inline PDA detector. Mass spectrometry was conducted on a quadrupole ion tunnel mass spectrometer equipped with a Z-spray ESI source. Explant protein levels were determined by the Lowry method, using bovine γ-globulin as the standard protein [Lippman et al., 1993]. Tissue explants, specifically human oral mucosal explants, were used to determine the in vitro effects of FBR content and pH on anthocyanin uptake. Human oral tissues for the tissue explant studies were obtained from consenting volunteers who were undergoing elective oral surgery procedures. To confirm “no pathologic diagnosis”, a portion of each of these tissues was submitted for light microscopic evaluation. […] Tissues for explant experiments were immediately placed in an artificial saliva transport medium, which also served as the incubation medium for the gel absorption studies. The composition of the artificial saliva used for tissue transport and incubation was (final concentrations): sodium carboxymethylcellulose (0.5%), sorbitol (165 mM), NaCl (14 mM), KCl (16 mM), calcium chloride dehydrate (1.0 mM), MgCl2 (0.63 mM), Trizma hydrochloride (2.0 mM). Tissues from eight donors were used for preliminary studies to compare the penetration of anthocyanins from the 5% berry gel and the 10% FBR gel, both at a final pH of 6.5. In order to account for heterogeneity among human donors, tissue samples were hemisected. One tissue portion treated with 5% and the other with 10% FBR gels. One gram of gel (containing either 5% or 10% w/w FBR) was placed on the epithelial surface of the explant, followed by gently rubbing of the site for 30 seconds to facilitate uptake. Explants were then placed into artificial saliva, incubated for 30 minutes (37° C., 5% CO2), and then frozen at −80° C. until HPLC-mass spectroscopy analyses as previously reported [Rodrigo et al., in press]. Tissue preparation for HPLC analyses consisted of homogenization of the entire oral mucosal specimen, removal of an aliquot for sample protein level determination, followed by the addition of collagenase type II (0.1 mg/mL, GIBCO, Grand Island, N.Y.) and 1% formic acid. Samples were then placed on a Sep Pack (Millipore, Billerica, Mass.), eluted with methanol, and dried under argon gas. Additional oral mucosal explant studies were conducted to compare the effect of FBR gel pH on absorption into oral mucosal explants. Tissues from eleven donors were used for these studies, and handling was as described above with the exception that all gels contained 10% w/w FBR and were formulated at a final pH of 3.5 or 6.5. […] Large differences (up to 15-fold) in detectable anthocyanin levels were found in the gel treated donor tissues; findings that likely reflect the extensive heterogeneity within human tissues that affects tissue penetrative abilities.

[2] = Human pharmacokinetic study: anthocyanins in saliva and peripheral blood after topical gel application; type: in vivo; conditions: 1.0 g 5% FBR Gel, pH 6.5 topical to floor of mouth, saliva collected 2-5 min after application
Method: Anthocyanin content in sera, saliva, and tissue explants was evaluated by an HPLC-MS assay. The respective samples (sera, saliva or tissue homogenates) were dissolved in 90% solvent A (water plus 1% formic acid) and 10% solvent B (acetonitrile plus 1% formic acid) and then separated on a Symmetry C18 reversed-phase column and analyzed using a Waters 2695 gradient HPLC separation module equipped with a 996 photodiode-array (PDA) UV/visible absorbance detector (Milford, Mass.). The solvent system consisted of a step gradient from 90% A to 50% B over 15 minutes, and the absorption spectra were recorded from 200-800 nm with the inline PDA detector. Mass spectrometry was conducted on a quadrupole ion tunnel mass spectrometer equipped with a Z-spray ESI source. Explant protein levels were determined by the Lowry method, using bovine γ-globulin as the standard protein [Lippman et al., 1993].
Next, evaluation of anthocyanin uptake into human oral mucosa from FBR gels prepared as described in Example 1 was undertaken. For in-vivo studies, participation of human subjects was conducted in accordance with an IRB approved protocol. […] For the phamacokinetic analyses, nine consenting adult volunteers dried the anterior floor of their mouth, placed 1.0 g of 5% berry gel (pH 6.5), and massaged the gel in place for 30 seconds to facilitate uptake. Two minutes after gel application saliva was collected for the next three minutes. Peripheral blood was drawn five minutes after gel application. Following clotting, sera samples were collected, and both the sera and saliva samples were stored at −80° C. until LC-MS analysis as described below.
All nine participants had detectable anthocyanin levels of three anthocyanins (cyanidin 3-rutinoside, cyanidin 3-xylosylrutinoside, cyanidin 3-glucoside) in either their saliva or blood, and 4 donors had detectable levels of two anthocyanins (cyanidin 3-rutinoside and cyanidin 3-xylosylrutinoside) in their peripheral blood. Saliva from eight of the nine donors contained detectable levels of either two (cyanidin 3-rutinoside and cyanidin 3-xylosylrutinoside-4 donors) or three anthocyanins (4 donors).

| SMILES | Anthocyanin uptake, Gel pH 3.5, Avg. ± SEM [1] [pmol per mg tissue] | Anthocyanin uptake, Gel pH 6.5, Avg. ± SEM [1] [pmol per mg tissue] | % change 3.5 to 6.5, Avg. ± SEM [1] [%] | % change 3.5 to 6.5 ([1]; explant sample 001) [%] | Anthocyanin uptake, Gel pH 3.5 ([1]; explant sample 001) [pmol per mg tissue] | Anthocyanin uptake, Gel pH 6.5 ([1]; explant sample 001) [pmol per mg tissue] | % change 3.5 to 6.5 ([1]; explant sample 002) [%] | Anthocyanin uptake, Gel pH 3.5 ([1]; explant sample 002) [pmol per mg tissue] | Anthocyanin uptake, Gel pH 6.5 ([1]; explant sample 002) [pmol per mg tissue] | % change 3.5 to 6.5 ([1]; explant sample 003) [%] | Anthocyanin uptake, Gel pH 3.5 ([1]; explant sample 003) [pmol per mg tissue] | Anthocyanin uptake, Gel pH 6.5 ([1]; explant sample 003) [pmol per mg tissue] | % change 3.5 to 6.5 ([1]; explant sample 004) [%] | Anthocyanin uptake, Gel pH 3.5 ([1]; explant sample 004) [pmol per mg tissue] | Anthocyanin uptake, Gel pH 6.5 ([1]; explant sample 004) [pmol per mg tissue] | % change 3.5 to 6.5 ([1]; explant sample 005) [%] | Anthocyanin uptake, Gel pH 3.5 ([1]; explant sample 005) [pmol per mg tissue] | Anthocyanin uptake, Gel pH 6.5 ([1]; explant sample 005) [pmol per mg tissue] | % change 3.5 to 6.5 ([1]; explant sample 006) [%] | Anthocyanin uptake, Gel pH 3.5 ([1]; explant sample 006) [pmol per mg tissue] | other results |
| --- | --- | --- | --- | --- | --- | --- | --- | --- | --- | --- | --- | --- | --- | --- | --- | --- | --- | --- | --- | --- | --- |
| OC[C@H]1O[C@@H](Oc2cc3c(O)cc(O)cc3[o+]c2-c2ccc(O)c(O)c2)[C@H](O[C@@H]2OC[C@@H](O)[C@H](O)[C@H]2O)[C@@H](O)[C@@H]1O.[Cl-] [Cyanidin 3-sambubioside, cyanidin 3-sambubioside] | 1.9 | 5.3 | 89.0 | 319.4 | 7.4 | 30.9 | 427.3 | 0.6 | 2.9 | −19.7 | 1.8 | 1.4 | −66.4 | 1.3 | 0.4 | −61.8 | 0.3 | 0.1 | 330.8 | 2.3 | Anthocyanin uptake, Gel pH 6.5 ([1]; explant sample 006): 10.1 pmol per mg tissue; % change 3.5 to 6.5 ([1]; explant sample 007): −14.6%; Anthocyanin uptake, Gel pH 3.5 ([1]; explant sample 007): 0.4 pmol per mg tissue; Anthocyanin uptake, Gel pH 6.5 ([1]; explant sample 007): 0.4 pmol per mg tissue; Anthocyanin uptake, Gel pH 3.5 ([1]; explant sample 008): 0.0 pmol per mg tissue; Anthocyanin uptake, Gel pH 6.5 ([1]; explant sample 008): 1.9 pmol per mg tissue; % change 3.5 to 6.5 ([1]; explant sample 009): 256.9%; Anthocyanin uptake, Gel pH 3.5 ([1]; explant sample 009): 2.9 pmol per mg tissue; Anthocyanin uptake, Gel pH 6.5 ([1]; explant sample 009): 10.3 pmol per mg tissue; % change 3.5 to 6.5 ([1]; explant sample 010): −92.9%; Anthocyanin uptake, Gel pH 3.5 ([1]; explant sample 010): 2.0 pmol per mg tissue; Anthocyanin uptake, Gel pH 6.5 ([1]; explant sample 010): 0.1 pmol per mg tissue; % change 3.5 to 6.5 ([1]; explant sample 011): −100%; Anthocyanin uptake, Gel pH 3.5 ([1]; explant sample 011): 2.1 pmol per mg tissue; Anthocyanin uptake, Gel pH 6.5 ([1]; explant sample 011): 0.0 pmol per mg tissue |
| OC[C@H]1O[C@@H](Oc2cc3c(O)cc(O)cc3[o+]c2-c2ccc(O)c(O)c2)[C@H](O)[C@@H](O)[C@@H]1O [cyanidin 3-glucoside] | 29.6 | 50.2 | 85.6 | 131.6 | 128.1 | 296.6 | 36.2 | 13.6 | 18.5 | −16.6 | 14.4 | 12.0 | 653.5 | 1.6 | 12.0 | 65.3 | 32.0 | 52.9 | 91.3 | 31.5 | Anthocyanin concentration in saliva ([2]; patient 104): 11.2 pmol/mL; Anthocyanin concentration in saliva ([2]; patient 105): 9.7 pmol/mL; Anthocyanin concentration in saliva ([2]; patient 107): 19.7 pmol/mL; Anthocyanin concentration in saliva ([2]; patient 109): 22.8 pmol/mL; Anthocyanin uptake, Gel pH 6.5 ([1]; explant sample 006): 60.3 pmol per mg tissue; % change 3.5 to 6.5 ([1]; explant sample 007): 34.5%; Anthocyanin uptake, Gel pH 3.5 ([1]; explant sample 007): 17.0 pmol per mg tissue; Anthocyanin uptake, Gel pH 6.5 ([1]; explant sample 007): 22.8 pmol per mg tissue; % change 3.5 to 6.5 ([1]; explant sample 008): −40.7%; Anthocyanin uptake, Gel pH 3.5 ([1]; explant sample 008): 33.2 pmol per mg tissue; Anthocyanin uptake, Gel pH 6.5 ([1]; explant sample 008): 19.7 pmol per mg tissue; % change 3.5 to 6.5 ([1]; explant sample 009): 113.9%; Anthocyanin uptake, Gel pH 3.5 ([1]; explant sample 009): 21.2 pmol per mg tissue; Anthocyanin uptake, Gel pH 6.5 ([1]; explant sample 009): 45.3 pmol per mg tissue; % change 3.5 to 6.5 ([1]; explant sample 010): −66.9%; Anthocyanin uptake, Gel pH 3.5 ([1]; explant sample 010): 13.9 pmol per mg tissue; Anthocyanin uptake, Gel pH 6.5 ([1]; explant sample 010): 4.6 pmol per mg tissue; % change 3.5 to 6.5 ([1]; explant sample 011): −60.1%; Anthocyanin uptake, Gel pH 3.5 ([1]; explant sample 011): 18.9 pmol per mg tissue; Anthocyanin uptake, Gel pH 6.5 ([1]; explant sample 011): 7.5 pmol per mg tissue |

Source: US20100047371A1, “COMPOSITIONS AND METHODS FOR ORAL CANCER CHEMOPREVENTION USING BERRY PREPARATIONS AND EXTRACTS” (priority 2006, published 2010)
